In patent US20230087342A1, “AZEPANE DERIVATIVE” (Nippon Chemiphar Co., Ltd., priority 2019, published 2023):

molecular target: T1, human κ opioid receptors (Homo sapiens, UniProt P41145); assay: Opioid receptor function test (Lance Ultra cAMP kit, agonist activity); type: cell-based; details: CHO cells expressing human κ opioid receptors, 10 μM forskolin, 30 minutes
T1 construct: host or cells: CHO cells
Procedure: Opioid Receptor Function Test
The function activity of the compound of the present invention on κ opioid receptors was examined.
Method: Using a Lance Ultra cAMP kit (Perkin Elmer), the examination was performed according to a predetermined method. In evaluation of agonist activity, CHO cells expressing human κ opioid receptors (Catalog No. CT6606, accession No. NM_000912) and a test compound were reacted in an assay buffer (1×HSS, 5 mM HEPES, pH 7.4, 0.5 mM IBMX (isobutylmethyixanthine), 0.1% SA) in the presence of 10 μM forskolin for 30 minutes. Subsequently, a cAMP detection reagent in the kit was added. One hour later, time-resolved fluorescence measurement was performed using an EnVision plate reader (Perkin Elmer). The evaluation of the test compound was performed in a concentration range of 10^−14 to 10^−7 M for the κ opioid receptor function test.

T1 sequence (P41145 whole entry): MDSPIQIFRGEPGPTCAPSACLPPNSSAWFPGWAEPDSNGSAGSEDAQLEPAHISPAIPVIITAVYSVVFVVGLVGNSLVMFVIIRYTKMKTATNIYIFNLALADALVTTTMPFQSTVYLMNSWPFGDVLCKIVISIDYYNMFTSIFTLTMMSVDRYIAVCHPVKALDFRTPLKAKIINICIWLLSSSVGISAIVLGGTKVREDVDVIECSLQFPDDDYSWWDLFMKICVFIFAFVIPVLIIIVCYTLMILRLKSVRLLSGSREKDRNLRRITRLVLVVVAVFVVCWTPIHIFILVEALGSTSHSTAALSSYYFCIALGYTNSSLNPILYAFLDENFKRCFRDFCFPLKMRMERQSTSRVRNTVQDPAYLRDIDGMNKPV

SMILES	EC50 [nM]
Cc1cnn(CCN2CC[C@]34CCN(CC5CC5)[C@H](Cc5ccc(O)cc53)[C@]4(O)CC2(C)C)c1 [Example 270, (5aS,6R,11bR)-14-(cyclopropylmethyl)-4,4-dimethyl-3-(2-(4-methyl-1H-pyrazol-1-yl)ethyl)-2,3,4,5,6,7-hexahydro-6,11b-(epiminoethano)naphtho[1,2-d]azepine-5a,10(1H)-diol]	0.052
Oc1ccc2c(c1)[C@@]13CCN(CCn4ncc5ccccc54)CC[C@@]1(O)[C@@H](C2)N(CC1CC1)CC3 [Example 122, (5aS,6R,11bS)-3-(2-(1H-indazol-1-yl)ethyl)-14-(cyclopropylmethyl)-2,3,4,5,6,7-hexahydro-6,11b-(epiminoethano)naphtho[1,2-d]azepine-5a,10(1H)-diol]	0.15
Cc1cnn(CCN2CC[C@]34CCN(CC5(F)CC5)[C@H](Cc5ccc(O)cc53)[C@]4(O)CC2)c1 [Example 226, (5aS,6R,11bS)-14-((1-fluorocyclopropyl)methyl)-3-(2-(4-methyl-1H-pyrazol-1-yl)ethyl)-2,3,4,5,6,7-hexahydro-6,11b-(epiminoethano)naphtho[1,2-d]azepine-5a,10(1H)-diol]	0.017
Cc1cc(CCC(=O)N2CC[C@]34CCN(CC5CC5)[C@H](Cc5ccc(O)cc53)[C@]4(O)CC2)ns1 [Example 217, 1-((5aS,6R,11bR)-14-(cyclopropylmethyl)-5a,10-dihydroxy-1,2,5,5a,6,7-hexahydro-6,11b-(epiminoethano)naphtho[1,2-d]azepin-3(4H)-yl)-3-(5-methylisothiazol-3-yl)propan-1-one]	0.18
Cn1nc(CCN2CC[C@]34CCN(CC5CC5)[C@H](Cc5ccc(O)cc53)[C@]4(O)CC2)c2ccccc21 [Example 113, (5aS,6R,11bS)-14-(cyclopropylmethyl)-3-(2-(1-methyl-1H-indazol-3-yl)ethyl)-2,3,4,5,6,7-hexahydro-6,11b-(epiminoethano)naphtho[1,2-d]azepine-5a,10(1H)-diol]	0.56
Cc1cc(CC(=O)N2CC[C@]34CCN(CC5CC5)[C@H](Cc5ccc(O)cc53)[C@]4(O)CC2)no1 [Example 185, 1-((5aS,6R,11bR)-14-(cyclopropylmethyl)-5a,10-dihydroxy-1,2,5,5a,6,7-hexahydro-6,11b-(epiminoethano)naphtho[1,2-d]azepin-3(4H)-yl)-2-(5-methylisoxazol-3-yl)ethan-1-one]	0.39
Oc1ccc2c(c1)[C@@]13CCN(CCc4ncccc4F)CC[C@@]1(O)[C@@H](C2)N(CC1CC1)CC3 [Example 100, (5aS,6R,11bS)-14-(cyclopropylmethyl)-3-(2-(3-fluoropyridin-2-yl)ethyl)-2,3,4,5,6,7-hexahydro-6,11b-(epiminoethano)naphtho[1,2-d]azepine-5a,10(1H)-diol]	0.26
C[Si]1(C)CCN(CCN2CC[C@]34CCN(CC5CC5)[C@H](Cc5ccc(O)cc53)[C@]4(O)CC2)CC1 [Example 133, (5aS,6R,11bS)-14-(cyclopropylmethyl)-3-(2-(4,4-dimethyl-1,4-azasilinan-1-yl)ethyl)-2,3,4,5,6,7-hexahydro-6,11b-(epiminoethano)naphtho[1,2-d]azepine-5a,10(1H)-diol]	0.033
NC(=O)c1ccc2c(c1)[C@@]13CCN(C(=O)CCn4cc(C(F)(F)F)cn4)CC[C@@]1(O)[C@@H](C2)N(CC1CC1)CC3 [Example 264, (5aS,6R,11bR)-14-(cyclopropylmethyl)-5a-hydroxy-3-(3-(4-(trifluoromethyl)-1H-pyrazol-1-yl)propanoyl)-1,2,3,4,5,5a,6,7-octahydro-6,11b-(epiminoethano)naphtho[1,2-d]azepine-10-carboxamide]	0.29
Oc1ccc2c(c1)[C@@]13CCN(CCc4cn5ccccc5n4)CC[C@@]1(O)[C@@H](C2)N(CC1CC1)CC3 [Example 116, (5aS,6R,11bS)-14-(cyclopropylmethyl)-3-(2-(imidazo[1,2-a]pyridin-2-yl)ethyl)-2,3,4,5,6,7-hexahydro-6,11b-(epiminoethano)naphtho[1,2-d]azepine-5a,10(1H)-diol]	0.021
Cc1cn(CC(=O)N2CC[C@]34CCN(CC5CC5)[C@H](Cc5ccc(O)cc53)[C@]4(O)CC2)nc1C(F)(F)F [Example 163, 1-((5aS,6R,11bR)-14-(cyclopropylmethyl)-5a,10-dihydroxy-1,2,5,5a,6,7-hexahydro-6,11b-(epiminoethano)naphtho[1,2-d]azepin-3(4H)-yl)-2-(4-methyl-3-(trifluoromethyl)-1H-pyrazol-1-yl)ethan-1-one]	0.076
O=C(Cc1n[nH]c2ccccc12)N1CC[C@]23CCN(CC4CC4)[C@H](Cc4ccc(O)cc42)[C@]3(O)CC1 [Example 114, 1-((5aS,6R,11bR)-14-(cyclopropylmethyl)-5a,10-dihydroxy-1,2,5,5a,6,7-hexahydro-6,11b-(epiminoethano)naphtho[1,2-d]azepin-3(4H)-yl)-2-(1H-indazol-3-yl)ethan-1-one]	0.043
Cc1cnn(CCN2CC[C@]34CCN(CC5(O)CC5)[C@H](Cc5ccc(O)cc53)[C@]4(O)CC2)c1 [Example 225, (5aS,6R,11bS)-14-((1-hydroxycyclopropyl)methyl)-3-(2-(4-methyl-1H-pyrazol-1-yl)ethyl)-2,3,4,5,6,7-hexahydro-6,11b-(epiminoethano)naphtho[1,2-d]azepine-5a,10(1H)-diol]	0.11
CCc1cnn(CCN2CC[C@]34CCN(CC5CC5)[C@H](Cc5ccc(O)cc53)[C@]4(O)CC2)c1 [Example 193, (5aS,6R,11bS)-14-(cyclopropylmethyl)-3-(2-(4-ethyl-1H-pyrazol-1-yl)ethyl)-2,3,4,5,6,7-hexahydro-6,11b-(epiminoethano)naphtho[1,2-d]azepine-5a,10(1H)-diol]	0.035
Cc1cc(C)n(CCN2CC[C@]34CCN(CC5CC5)[C@H](Cc5ccc(O)cc53)[C@]4(O)CC2)n1 [Example 56, (5aS,6R,11bS)-14-(cyclopropylmethyl)-3-(2-(3,5-dimethyl-1H-pyrazol-1-yl)ethyl)-2,3,4,5,6,7-hexahydro-6,11b-(epiminoethano)naphtho[1,2-d]azepine-5a,10(1H)-diol]	0.97
NC(=O)c1ccc2c(c1)[C@@]13CCN(C(=O)Cc4n[nH]c5ccccc45)CC[C@@]1(O)[C@@H](C2)N(CC1CC1)CC3 [Example 265, (5aS,6R,11bR)-3-(2-(1H-indazol-3-yl)acetyl)-14-(cyclopropylmethyl)-5a-hydroxy-1,2,3,4,5,5a,6,7-octahydro-6,11b-(epiminoethano)naphtho[1,2-d]azepine-10-carboxamide]	0.12
Oc1ccc2c(c1)[C@@]13CCN(CCc4cc[nH]n4)CC[C@@]1(O)[C@@H](C2)N(CC1CC1)CC3 [Example 27, (5aS,6R,11bS)-3-(2-(1H-pyrazol-3-yl)ethyl)-14-(cyclopropylmethyl)-2,3,4,5,6,7-hexahydro-6,11b-(epiminoethano)naphtho[1,2-d]azepine-5a,10(1H)-diol]	0.13
Oc1ccc2c(c1)[C@@]13CCN(CCCc4ccccn4)CC[C@@]1(O)[C@@H](C2)N(CC1CC1)CC3 [Example 69, (5aS,6R,11bS)-14-(cyclopropylmethyl)-3-(3-(pyridin-2-yl)propyl)-2,3,4,5,6,7-hexahydro-6,11b-(epiminoethano)naphtho[1,2-d]azepine-5a,10(1H)-diol]	0.28
Cc1cnn(C2CC(N3CC[C@]45CCN(CC6CC6)[C@H](Cc6ccc(O)cc64)[C@]5(O)CC3)C2)c1 (single isomer, unassigned) [Example 227 (I)]	0.015
Cn1cnc(CCN2CC[C@]34CCN(CC5CC5)[C@H](Cc5ccc(O)cc53)[C@]4(O)CC2)c1 [Example 41, (5aS,6R,11bS)-14-(cyclopropylmethyl)-3-(2-(1-methyl-1H-imidazol-4-yl)ethyl)-2,3,4,5,6,7-hexahydro-6,11b-(epiminoethano)naphtho[1,2-d]azepine-5a,10(1H)-diol]	0.13
Cc1cc2c(cc1O)[C@@]13CCN(C(=O)Cc4cn5ccccc5n4)CC[C@@]1(O)[C@@H](C2)N(CC1CC1)CC3 [Example 314, 1-((5aS,6R,11bR)-14-(cyclopropylmethyl)-5a,10-dihydroxy-9-methyl-1,2,5,5a,6,7-hexahydro-6,11b-(epiminoethano)naphtho[1,2-d]azepin-3(4H)-yl)-2-(imidazo[1,2-a]pyridin-2-yl)ethan-1-one]	0.27
Cc1cnn(CCN2CC[C@]34CCN(C[C@@H]5C[C@@H]5F)[C@H](Cc5ccc(O)cc53)[C@]4(O)CC2)c1 [Example 219, (5aS,6R,11bS)-14-(((1S,2S)-2-fluorocyclopropyl)methyl)-3-(2-(4-methyl-1H-pyrazol-1-yl)ethyl)-2,3,4,5,6,7-hexahydro-6,11b-(epiminoethano)naphtho[1,2-d]azepine-5a,10(1H)-diol]	0.23
Cc1cc(CC(=O)N2CC[C@]34CCN(CC5CC5)[C@H](Cc5ccc(O)cc53)[C@]4(O)CC2)ns1 [Example 168, 1-((5aS,6R,11bR)-14-(cyclopropylmethyl)-5a,10-dihydroxy-1,2,5,5a,6,7-hexahydro-6,11b-(epiminoethano)naphtho[1,2-d]azepin-3(4H)-yl)-2-(5-methylisothiazol-3-yl)ethan-1-one]	0.047
Oc1ccc2c(c1)[C@@]13CCN(CCc4ccccn4)CC[C@@]1(O)[C@@H](C2)N(CC1CCC1)CC3 [Example 162, (5aS,6R,11bS)-14-(cyclobutylmethyl)-3-(2-(pyridin-2-yl)ethyl)-2,3,4,5,6,7-hexahydro-6,11b-(epiminoethano)naphtho[1,2-d]azepine-5a,10(1H)-diol]	0.39
